Laboratory results: ChEMBL document CHEMBL3769317, “Aminothiazoles as Potent and Selective Sirt2 Inhibitors: A Structure-Activity Relationship Study” (J Med Chem, 2016)

Tests used:
[1] = biological target: T1, NAD-dependent protein deacetylase sirtuin-1 (Homo sapiens) (UniProt Q96EB6); assay: Inhibition of GST-tagged human SIRT1 (133 to 747 amino acids) using ZMAL as substrate at 200 uM after 4 hrs by fluorescence-based microplate reader method
T1 sequence (whole entry): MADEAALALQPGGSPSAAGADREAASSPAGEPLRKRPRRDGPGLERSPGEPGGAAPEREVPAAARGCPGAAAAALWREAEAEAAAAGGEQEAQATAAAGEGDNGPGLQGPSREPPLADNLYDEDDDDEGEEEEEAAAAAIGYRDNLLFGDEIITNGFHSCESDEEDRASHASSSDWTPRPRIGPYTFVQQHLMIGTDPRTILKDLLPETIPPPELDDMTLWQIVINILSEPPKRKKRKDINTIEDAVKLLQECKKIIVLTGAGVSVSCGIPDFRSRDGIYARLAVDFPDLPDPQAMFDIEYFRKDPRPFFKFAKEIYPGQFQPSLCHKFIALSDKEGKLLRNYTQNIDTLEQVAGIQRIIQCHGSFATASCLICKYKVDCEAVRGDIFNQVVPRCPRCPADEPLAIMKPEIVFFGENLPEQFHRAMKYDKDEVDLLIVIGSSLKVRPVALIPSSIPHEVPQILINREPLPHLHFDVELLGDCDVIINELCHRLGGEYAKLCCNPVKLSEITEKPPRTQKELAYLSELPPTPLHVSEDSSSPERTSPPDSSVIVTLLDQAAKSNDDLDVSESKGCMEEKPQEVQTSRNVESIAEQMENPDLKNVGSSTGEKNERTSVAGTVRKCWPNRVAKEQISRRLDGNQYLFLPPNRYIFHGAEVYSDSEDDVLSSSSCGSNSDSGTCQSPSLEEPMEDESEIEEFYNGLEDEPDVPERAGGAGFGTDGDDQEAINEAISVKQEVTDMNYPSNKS

[2] = biological target: T2, NAD-dependent protein deacetylase sirtuin-2 (Homo sapiens, UniProt Q8IXJ6); assay: Inhibition of N-terminal his6-tagged human SIRT2 (25 to 389 amino acids) using ZMAL as substrate after 4 hrs by fluorescence-based microplate reader method
T2 sequence (Q8IXJ6 whole entry): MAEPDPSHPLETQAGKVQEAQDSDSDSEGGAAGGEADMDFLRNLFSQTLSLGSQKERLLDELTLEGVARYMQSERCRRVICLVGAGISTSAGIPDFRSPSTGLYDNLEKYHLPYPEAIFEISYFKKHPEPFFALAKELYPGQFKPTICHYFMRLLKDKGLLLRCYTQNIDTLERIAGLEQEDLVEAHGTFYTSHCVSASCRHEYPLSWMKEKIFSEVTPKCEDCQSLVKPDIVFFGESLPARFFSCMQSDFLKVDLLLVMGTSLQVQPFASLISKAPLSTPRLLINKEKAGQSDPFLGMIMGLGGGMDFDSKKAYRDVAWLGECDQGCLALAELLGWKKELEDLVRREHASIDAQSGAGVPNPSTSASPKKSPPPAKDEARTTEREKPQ

| Compound | inhibition [1] [%] | IC50 [2] [µM] |
| --- | --- | --- |
| Cc1cc(C)nc(SCC(=O)N(C)c2ncc(Cc3cccc4ccccc34)s2)n1 | < 10 | > 100 |
| NC(=O)c1ccc[n+](CC(=O)Nc2ncc(Cc3cccc4ccccc34)s2)c1 | 39 | 289 |
| Cc1cc(C)nc(SCC(=O)Nc2nnc(C(F)(F)F)s2)n1 | 12 | 503 |
| Cc1cc(C)nc(SCC(=O)Nc2ncc(Cc3ccc4ccccc4c3)s2)n1 | < 10 | – |
| O=C(CSc1cccc(O)c1)Nc1ncc(Cc2cccc3ccccc23)s1 | < 10 | 143 |
| Cc1cc(C)nc(SC(C)C(=O)Nc2ncc(Cc3ccc(-c4ccccc4)cc3)s2)n1 (racemic) | 14 | 33 |
| Cc1cc(C)nc(SCC(=O)Nc2nnc(Cc3ccc(Br)cc3)s2)n1 | < 10 | 168 |
| Cc1cc(C)nc(SCC(=O)Nc2ncc(Cc3ccc(-c4ccccc4)cc3)s2)n1 | 29 | 164 |
| O=C(CSc1ncccn1)Nc1ncc(Cc2ccccc2)s1 | 12 | – |
| Cc1cc(C)nc(SCC(=O)Nc2ncc(C(=O)Nc3cccc4ccccc34)s2)n1 | < 10 | 33 |
| CCCc1cc(O)nc(SCC(=O)Nc2ncc(Cc3cccc4ccccc34)s2)n1 | 22 | 127 |
| CCOc1ccc2nc(NC(=O)CSc3nc(C)cc(C)n3)sc2c1 | 16 | 77.8 |
| Cc1cc(C)cc(SCC(=O)Nc2ncc(Cc3cccc4ccccc34)s2)c1 | 16 | 207 |
| Cc1cc(C)nc(SCC(=O)Nc2nnc(Cc3ccc(Cl)cc3)s2)n1 | < 10 | 30.9 |

More lines, in order of falling IC50 [2], values ahead:

| inhibition [1] [%] | IC50 [2] [µM] | Compound |
| --- | --- | --- |
| < 10 | 19.9 | O=C(CSc1nnc(-c2ccccc2)c(-c2ccccc2)n1)Nc1nnc(-c2ccccc2)s1 |
| < 10 | 15 | Cc1nc(SCC(=O)Nc2ncc(Cc3cccc4ccccc34)s2)nc(C)c1C |
| 27 | 14.6 | COc1ccc(Cc2cnc(NC(=O)C(C)Sc3nc(C)cc(C)n3)s2)cc1 (racemic) |
| < 10 | 9.77 | Cc1cc(C)nc(S[C@H](C)C(=O)Nc2ncc(Cc3cccc4ccccc34)s2)n1 |
| 16 | 4.72 | Cc1ccc(Cc2cnc(NC(=O)CSc3nc(C)cc(C)n3)s2)cc1 |
| < 10 | 3.4 | Cc1cc(C)nc(SCC(=O)Nc2ncc(Cc3ccc(Cl)cc3)s2)n1 |
| 17 | 2.34 | O=C(CSc1ncccn1)Nc1ncc(Cc2cccc3ccccc23)s1 |
| 21 | 1.92 | CC(Sc1ncccn1)C(=O)Nc1ncc(Cc2cccc3ccccc23)s1 (racemic) |
| < 10 | 1.89 | Cc1cc(C)nc(SCC(=O)Nc2nnc(Cc3cccc4ccccc34)s2)n1 |
| 18 | 1.64 | Cc1cccc(Cc2cnc(NC(=O)CSc3nc(C)cc(C)n3)s2)c1 |
| < 10 | 1.45 | Cc1ccnc(SCC(=O)Nc2ncc(Cc3cccc4ccccc34)s2)n1 |
| < 10 | 1.33 | CCOc1cccc(Cc2cnc(NC(=O)CSc3nc(C)cc(C)n3)s2)c1 |
| 35 | 0.54 | CCC(Sc1nc(C)cc(C)n1)C(=O)Nc1ncc(Cc2cccc3ccccc23)s1 (racemic) |
| 20 | 0.48 | Cc1cc(C)nc(SCC(=O)Nc2ncc(Cc3cccc4cc(Cl)ccc34)s2)n1 |
| 17 | 0.42 | Cc1cc(C)nc(SC(C)C(=O)Nc2ncc(Cc3cccc4ccccc34)s2)n1 (racemic) |
| < 10 | 0.32 | CCC(Sc1nc(C)cc(C)n1)C(=O)Nc1ncc(Cc2cccc3ccc(Cl)cc23)s1 (racemic) |
| < 10 | 0.31 | Cc1cc(C)nc(SCC(=O)Nc2ncc(Cc3c(C)ccc4ccccc34)s2)n1 |
| < 10 | 0.26 | Cc1cc(C)nc(S[C@@H](C)C(=O)Nc2ncc(Cc3cccc4ccccc34)s2)n1 |
| < 10 | 0.21 | Cc1cc(C)nc(SCC(=O)Nc2ncc(Cc3cccc4ccc(Br)cc34)s2)n1 |
